Measurements published in PubChem BioAssay AID1845203 (Molecular Pharmacology Branch, DTP, NCI, 2023).

System: G-401 tumor spheroids, viability % test/control
Experiment: Anticancer human tumor G-401 cell line growth inhibition;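 also: spheroids exposed to compound for 7 days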;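 as to viability, T/C: 100% = DMSO vehicle-treated spheroids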
Conditions: spheroids with HUVEC and MSC; for IC50: curve of first compound; for viability, T/C: stronger effect = lower value
Procedure, shortened: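 Single agents and combinations were tested on spheroids built from tumor cells plus HUVEC and hMSC, at half-log dilutions starting at or near clinical Cmax, else 10 microM; final DMSO 0.25% (v/v).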

[1] = second compound 1 µM, first compound 0.00949 µM
[2] = second compound 1 µM, first compound 0.03 µM
[3] = second compound 1 µM, first compound 0.0949 µM
[4] = second compound 1 µM, first compound 0.3 µM
[5] = second compound 1 µM, first compound 0.949 µM
[6] = second compound 1 µM, first compound 3 µM
[7] = second compound 3.16 µM, first compound 0.00949 µM
[8] = second compound 3.16 µM, first compound 0.03 µM
[9] = second compound 3.16 µM, first compound 0.0949 µM
[10] = second compound 3.16 µM, first compound 0.3 µM
[11] = second compound 3.16 µM, first compound 0.949 µM
[12] = second compound 3.16 µM, first compound 3 µM
[13] = second compound 10 µM, first compound 0.00949 µM
[14] = second compound 10 µM, first compound 0.03 µM
[15] = second compound 10 µM, first compound 0.0949 µM
[16] = second compound 10 µM, first compound 0.3 µM
[17] = second compound 10 µM, first compound 0.949 µM
[18] = second compound 10 µM, first compound 3 µM
[19] = second compound 31.6 µM, first compound 0.00949 µM
[20] = second compound 31.6 µM, first compound 0.03 µM
[21] = second compound 31.6 µM, first compound 0.0949 µM
[22] = second compound 31.6 µM, first compound 0.3 µM
[23] = second compound 31.6 µM, first compound 0.949 µM
[24] = second compound 31.6 µM, first compound 3 µM
[25] = second compound 100 µM, first compound 0.00949 µM
[26] = second compound 100 µM, first compound 0.03 µM
[27] = second compound 100 µM, first compound 0.0949 µM
[28] = second compound 100 µM, first compound 0.3 µM
[29] = second compound 100 µM, first compound 0.949 µM
[30] = second compound 100 µM, first compound 3 µM

| Structure (SMILES) | IC50 (second compound 1 µM) | IC50 (second compound 3.16 µM) | IC50 (second compound 10 µM) | IC50 (second compound 31.6 µM) | IC50 (second compound 100 µM) | viability, T/C [3] | viability, T/C [4] | viability, T/C [5] | viability, T/C [6] | viability, T/C [9] | viability, T/C [10] | viability, T/C [11] | viability, T/C [12] | viability, T/C [15] | viability, T/C [16] | viability, T/C [17] | viability, T/C [18] | viability, T/C [21] | viability, T/C [22] | viability, T/C [23] | also measured |
| --- | --- | --- | --- | --- | --- | --- | --- | --- | --- | --- | --- | --- | --- | --- | --- | --- | --- | --- | --- | --- | --- |
| CNCc1ccc(-c2cc(-c3nc(-c4ccc(S(=O)(=O)C(C)C)cc4)cnc3N)on2)cc1 + Cn1nnc2c(C(N)=O)ncn2c1=O | 2010 nM | 1780 nM | 1060 nM | 917 nM | 323 nM | 106% | 106% | 72.7% | 37.8% | 104% | 103% | 64.1% | 38.4% | 100% | 99.2% | 52.5% | 25.4% | 96.2% | 85.1% | 49% | viability, T/C [1]: 105%; viability, T/C [2]: 108%; viability, T/C [7]: 109%; viability, T/C [8]: 105%; viability, T/C [13]: 103%; viability, T/C [14]: 97.6%; viability, T/C [19]: 93.9%; viability, T/C [20]: 94.7%; viability, T/C [24]: 20.4%; viability, T/C [25]: 96.3%; viability, T/C [26]: 98.7%; viability, T/C [27]: 90.4%; viability, T/C [28]: 51.7%; viability, T/C [29]: 27.1%; viability, T/C [30]: 25.7% |
| Cc1sc2c(c1C)C(c1ccc(Cl)cc1)=NC(CC(=O)Nc1ccc(O)cc1)c1nnc(C)n1-2 (stereo not given) + Cn1nnc2c(C(N)=O)ncn2c1=O | 169 nM | 179 nM | 163 nM | 147 nM | 148 nM | 67.4% | 37.6% | 13.4% | 10.3% | 65.1% | 35.6% | 19.7% | 8.06% | 63.5% | 38% | 20.9% | 9.13% | 56.1% | 34% | 20.5% | viability, T/C [1]: 108%; viability, T/C [2]: 83%; viability, T/C [7]: 93%; viability, T/C [8]: 91.8%; viability, T/C [13]: 101%; viability, T/C [14]: 77.3%; viability, T/C [19]: 84.5%; viability, T/C [20]: 82.6%; viability, T/C [24]: 4.42%; viability, T/C [25]: 102%; viability, T/C [26]: 83%; viability, T/C [27]: 64.8%; viability, T/C [28]: 30.4%; viability, T/C [29]: 11.2%; viability, T/C [30]: 4.09% |
| Cn1ncnc1[C@H]1c2n[nH]c(=O)c3cc(F)cc(c23)N[C@@H]1c1ccc(F)cc1 + Cn1nnc2c(C(N)=O)ncn2c1=O | 156 nM | 57.5 nM | 22.2 nM | < 9.49 nM | < 9.49 nM | 57.2% | 39.6% | 23.3% | 12.6% | 45.3% | 30.5% | 23.4% | 13.2% | 32.4% | 23.3% | 15.7% | 10.4% | 16.4% | 13.9% | 10.4% | viability, T/C [1]: 81.7%; viability, T/C [2]: 73.9%; viability, T/C [7]: 87.8%; viability, T/C [8]: 54.6%; viability, T/C [13]: 63%; viability, T/C [14]: 44.9%; viability, T/C [19]: 35.6%; viability, T/C [20]: 21.3%; viability, T/C [24]: 9.51%; viability, T/C [25]: 14.1%; viability, T/C [26]: 11.6%; viability, T/C [27]: 10.8%; viability, T/C [28]: 10.3%; viability, T/C [29]: 8.87%; viability, T/C [30]: 6.62% |
| O=C(c1cc(Cc2n[nH]c(=O)c3ccccc23)ccc1F)N1CCN(C(=O)C2CC2)CC1 + Cn1nnc2c(C(N)=O)ncn2c1=O | 12200 nM | 8360 nM | 5160 nM | 2120 nM | 402 nM | 102% | 102% | 93.3% | 83% | 94.4% | 96.5% | 96.7% | 80.4% | 91.2% | 95% | 94.5% | 66.7% | 91.6% | 83.2% | 79% | viability, T/C (second compound 1 µM, first compound 9.49 µM): 54%; viability, T/C (second compound 1 µM, first compound 30 µM): 32.9%; viability, T/C (second compound 3.16 µM, first compound 9.49 µM): 46.6%; viability, T/C (second compound 3.16 µM, first compound 30 µM): 28.3%; viability, T/C (second compound 10 µM, first compound 9.49 µM): 31.3%; viability, T/C (second compound 10 µM, first compound 30 µM): 20.4%; viability, T/C [24]: 37.4%; viability, T/C (second compound 31.6 µM, first compound 9.49 µM): 19.5%; viability, T/C (second compound 31.6 µM, first compound 30 µM): 15.4%; viability, T/C [27]: 65.8%; viability, T/C [28]: 58.1%; viability, T/C [29]: 26.8%; viability, T/C [30]: 17.9%; viability, T/C (second compound 100 µM, first compound 9.49 µM): 14.3%; viability, T/C (second compound 100 µM, first compound 30 µM): 13.3% |
